This note sets out measurements from PubChem BioAssay AID330 (DTP/NCI, 2004).

“And” between values parts separate entries of the source, which are not always exact repeats. Equal values may be shown once. Toxic doses and inconclusive results are not listed.

This experiment deals with P388 leukemia ip, CD2F1 mice, survival T/C. The experiment in a line: NCI In Vivo Anticancer Drug Screen. Data for tumor model P388 Leukemia (intraperitoneal) in CD2F1 (CDF1) mice. The note with it: endpoint: median survival time, higher = longer survival. In a few lines:
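Mice carrying the transplanted tumor received test compound or vehicle. Survival was recorded in each group, and the value is the treated-group measurement divided by that of the vehicle-treated control group.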

[1] abbreviates: dose: 12.5 mg/kg/injection, schedule: Q01DX009 (ip), vehicle: saline with Tween-80.
Where [2] appears, read: dose: 12.5 mg/kg/injection, schedule: Q01DX009 (ip), vehicle: saline.
Where [3] appears, read: dose: 25.0 mg/kg/injection, schedule: Q01DX009 (ip), vehicle: saline with Tween-80.
Setting [4] is: dose: 50.0 mg/kg/injection, schedule: Q01DX009 (ip), vehicle: saline.
The mark [5] stands for this setting: dose: 100.0 mg/kg/injection, schedule: Q01DX009 (ip), vehicle: saline with Tween-80.
Where [6] appears, read: dose: 100.0 mg/kg/injection, schedule: Q01DX009 (ip), vehicle: saline.
Where [7] appears, read: dose: 25.0 mg/kg/injection, schedule: Q01DX009 (ip), vehicle: saline.
The mark [8] stands for this setting: dose: 50.0 mg/kg/injection, schedule: Q01DX009 (ip), vehicle: saline with Tween-80.
Where [9] appears, read: dose: 200.0 mg/kg/injection, schedule: Q01DX009 (ip), vehicle: saline with Tween-80.
[10] abbreviates: dose: 60.0 mg/kg/injection, schedule: Q01DX005 (ip), vehicle: saline with Tween-80.
Setting [11] is: dose: 120.0 mg/kg/injection, schedule: Q01DX005 (ip), vehicle: saline with Tween-80.
Setting [12] is: dose: 240.0 mg/kg/injection, schedule: Q01DX005 (ip), vehicle: saline with Tween-80.
Setting [13] is: dose: 50.0 mg/kg/injection, schedule: Q01DX005 (ip), vehicle: saline with Tween-80.
Where [14] appears, read: dose: 100.0 mg/kg/injection, schedule: Q01DX005 (ip), vehicle: saline with Tween-80.
The mark [15] stands for this setting: dose: 60.0 mg/kg/injection, schedule: Q01DX005 (ip), vehicle: saline.
Setting [16] is: dose: 120.0 mg/kg/injection, schedule: Q01DX005 (ip), vehicle: saline.
The mark [17] stands for this setting: dose: 240.0 mg/kg/injection, schedule: Q01DX005 (ip), vehicle: saline.

Regarding `CN(CO)c1nc(N(C)CO)nc(N(C)CO)n1`, the T/C by setting is: under setting [1], 110 % of control; under setting [2], 103 % of control; under setting [3], 119 % of control; under setting [4], 160 % of control; under setting [5], 151 % of control; under setting [6], 203 % of control.
For `COc1ccc2cc3cc[n+](C)cc3cc2c1OC`, the T/C is 114 % of control (dose: 12.5 mg/kg/injection, schedule: Q01DX009 (ip), vehicle: water) and 119 % of control (dose: 25.0 mg/kg/injection, schedule: Q01DX009 (ip), vehicle: water).
Regarding `CC1(c2cccc[n+]2Cc2ccc(Cl)c3ccccc23)OCCO1`, the T/C is, setting by setting: under setting [2], 101 % of control; under setting [7], 101 % of control.
Turning to `O=c1n(CC2CC3(Cl)C(Cl)=C(Cl)C2(Cl)C3(Cl)Cl)c(=O)n(CC2CC3(Cl)C(Cl)=C(Cl)C2(Cl)C3(Cl)Cl)c(=O)n1CC1CC2(Cl)C(Cl)=C(Cl)C1(Cl)C2(Cl)Cl` (centres undefined), the T/C reads like this: under setting [1], 101 % of control; under setting [3], 95 % of control; under setting [8], 87 % of control and 95 % of control; under setting [9], 97 % of control.
For the compound `O=C(NCc1ccco1)C(=O)N/N=C/c1ccccc1O`, the T/C reads like this: under setting [8], 89 % of control; under setting [5], 92 % of control; under setting [9], 92 % of control.
Regarding `CC1(OC(=O)c2ccc([N+](=O)[O-])cc2)CC(C)(C)[N+]([O-])=N1` (centres undefined), the T/C is, setting by setting: (dose: 12.5 mg/kg/injection, schedule: Q01DX009 (ip), vehicle: other) 102 % of control; (dose: 25.0 mg/kg/injection, schedule: Q01DX009 (ip), vehicle: other) 102 % of control; (dose: 50.0 mg/kg/injection, schedule: Q01DX009 (ip), vehicle: other) 109 % of control; (dose: 100.0 mg/kg/injection, schedule: Q01DX009 (ip), vehicle: other) 100 % of control; (dose: 200.0 mg/kg/injection, schedule: Q01DX009 (ip), vehicle: other) 94 % of control.
On to `O=C1NC(=O)[C@H]2C[C@H]3C(=O)NC(=O)[C@H]3[C@@H]12`, for which the T/C by setting is: (dose: 25.0 mg/kg/injection, schedule: Q01DX009 (ip), vehicle: Klucel (hydroxypropylcellulose) (HPC)) 99 % of control; (dose: 50.0 mg/kg/injection, schedule: Q01DX009 (ip), vehicle: Klucel (hydroxypropylcellulose) (HPC)) 101 % of control; (dose: 100.0 mg/kg/injection, schedule: Q01DX009 (ip), vehicle: Klucel (hydroxypropylcellulose) (HPC)) 102 % of control and 107 % of control; (dose: 200.0 mg/kg/injection, schedule: Q01DX009 (ip), vehicle: Klucel (hydroxypropylcellulose) (HPC)) 101 % of control and 107 % of control; (dose: 400.0 mg/kg/injection, schedule: Q01DX009 (ip), vehicle: Klucel (hydroxypropylcellulose) (HPC)) 96 % of control.
Regarding `CCOC(=O)c1c(Cl)c(CC)c(Cl)n2c1nc1ccccc12`, the T/C was 97 % of control under setting [10], 93 % of control under setting [11] and 101 % of control under setting [12].
As to `COc1ccc(NC(=O)CCC2=CC(=O)CC(c3ccccc3)O2)cc1` (centres undefined), the T/C under setting [10] was 105 % of control; the T/C (dose: 124.0 mg/kg/injection, schedule: Q01DX005 (ip), vehicle: saline with Tween-80) was 104 % of control; the T/C under setting [12] was 104 % of control.
On to `O/N=C/c1cc(I)cc(I)c1O`, for which the T/C under setting [13] was 90 % of control; the T/C under setting [14] is 99 % of control; the T/C (dose: 200.0 mg/kg/injection, schedule: Q01DX005 (ip), vehicle: saline with Tween-80) was 99 % of control.
As to `CC(=O)NC(C)(C(C)=O)c1ccccc1` (centres undefined), the T/C by setting is: under setting [15], 102 % of control; under setting [16], 107 % of control; under setting [17], 110 % of control.
Take `COC(=O)c1nc(N)nc(C(=O)OC)c1C(=O)C(C)C`: the T/C runs as follows: under setting [10], 97 % of control; under setting [11], 98 % of control.
For the compound `Cn1cc([N+](=O)[O-])c([N+](=O)[O-])c1`, the T/C is, setting by setting: under setting [8], 102 % of control; under setting [5], 103 % of control; under setting [9], 102 % of control.
For the compound `CC(=O)OCC1OC(CCC#N)C(OC(C)=O)C(OC(C)=O)C1OC(C)=O` (centres undefined), the T/C reads like this: under setting [10], 102 % of control and 100 % of control; under setting [15], 102 % of control; under setting [11], 98 % of control and 108 % of control; under setting [16], 101 % of control; under setting [12], 100 % of control and 102 % of control; under setting [17], 101 % of control.
With `O=C(O)CNC(=O)C(CN1CC(=O)OC1c1ccc([N+](=O)[O-])cc1)N1C(=O)c2ccccc2C1=O` (centres undefined), the T/C (dose: 25.0 mg/kg/injection, schedule: Q04DX003 (ip), vehicle: saline with Tween-80) was 100 % of control and the T/C (dose: 50.0 mg/kg/injection, schedule: Q04DX003 (ip), vehicle: saline with Tween-80) is 100 % of control.
As to `Cc1c(O)c2c(c(O)c1Cc1ccc(CN)cc1)C(=O)c1ccccc1C2=O`, the T/C reads like this: (dose: 12.5 mg/kg/injection, schedule: Q04DX003 (ip), vehicle: water) 98 % of control; (dose: 25.0 mg/kg/injection, schedule: Q04DX003 (ip), vehicle: water) 90 % of control; (dose: 50.0 mg/kg/injection, schedule: Q04DX003 (ip), vehicle: water) 93 % of control; (dose: 100.0 mg/kg/injection, schedule: Q04DX003 (ip), vehicle: water) 103 % of control.
As to `COc1ccc(C(=O)CCN(C)C)cc1`, the T/C is 104 % of control under setting [4] and 104 % of control under setting [6].
In the case of `NC1=NC(O)C=C1` (centres undefined), the T/C by setting is: (dose: 12.5 mg/kg/injection, schedule: Q01DX005 (ip), vehicle: saline) 105 % of control; (dose: 25.0 mg/kg/injection, schedule: Q01DX005 (ip), vehicle: saline) 107 % of control.
As for `Nc1nncs1`, the T/C is, setting by setting: (dose: 6.25 mg/kg/injection, schedule: Q01DX009 (ip), vehicle: water) 107 % of control and 108 % of control and 94 % of control; (dose: 7.5 mg/kg/injection, schedule: Q01DX009 (ip), vehicle: water) 112 % of control; (dose: 15.0 mg/kg/injection, schedule: Q01DX009 (ip), vehicle: water) 101 % of control; (dose: 20.0 mg/kg/injection, schedule: Q01DX005 (ip), vehicle: saline) 103 % of control and 109 % of control; (dose: 30.0 mg/kg/injection, schedule: Q01DX009 (ip), vehicle: water) 117 % of control; (dose: 40.0 mg/kg/injection, schedule: Q01DX005 (ip), vehicle: saline) 122 % of control. Moreover, the T/C was 172 % of control and 188 % of control (dose: 80.0 mg/kg/injection, schedule: Q01DX005 (ip), vehicle: saline); 104 % of control (dose: 120.0 mg/kg/injection, schedule: Q01DX009 (ip), vehicle: water); 69 % of control (dose: 160.0 mg/kg/injection, schedule: Q01DX005 (ip), vehicle: saline).
As for `OC1(C(O)(c2ccc(-c3ccccc3)cc2)c2ccc(-c3ccccc3)cc2)CCCCC1`, the T/C is 90 % of control under setting [13] and 87 % of control under setting [14].
As to `COc1cc(C(=O)O)cc(C(=O)O)c1`, the T/C reads like this: (dose: 6.25 mg/kg/injection, schedule: Q01DX009 (ip), vehicle: saline) 99 % of control; under setting [2], 107 % of control; under setting [7], 100 % of control.
For the compound `Cc1c(C2=NCC(C)S2)ccc(O)c1S(=O)(=O)O` (centres undefined), the T/C was 92 % of control under setting [4]; 92 % of control under setting [6]; 101 % of control (dose: 200.0 mg/kg/injection, schedule: Q01DX009 (ip), vehicle: saline).
Regarding `O=C1CCC2C(=O)OCC12` (centres undefined), the T/C (dose: 50.0 mg/kg/injection, schedule: Q04DX002 (ip), vehicle: saline) is 99 % of control; the T/C (dose: 100.0 mg/kg/injection, schedule: Q04DX002 (ip), vehicle: saline) is 101 % of control; the T/C (dose: 200.0 mg/kg/injection, schedule: Q04DX002 (ip), vehicle: saline) is 94 % of control; the T/C (dose: 400.0 mg/kg/injection, schedule: Q04DX002 (ip), vehicle: saline) was 100 % of control.
`CC(C)C(NC(=O)OC(C)(C)C)C(=O)O` (centres undefined): the T/C (dose: 50.0 mg/kg/injection, schedule: Q01DX005 (ip), vehicle: Klucel (hydroxypropylcellulose) (HPC)) is 102 % of control; the T/C (dose: 100.0 mg/kg/injection, schedule: Q01DX005 (ip), vehicle: Klucel (hydroxypropylcellulose) (HPC)) was 104 % of control; the T/C (dose: 200.0 mg/kg/injection, schedule: Q01DX005 (ip), vehicle: Klucel (hydroxypropylcellulose) (HPC)) is 93 % of control.
